Data from PubChem BioAssay (NCI).
Values joined by “and” are separate entries in the source; they are usually repeats but may differ in a detail not shown here. Equal values may be shown once.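 In this assay, cells in 96-well plates receive the compound at five concentrations for 48 hours. Endpoints are linearly interpolated between the surrounding concentrations. GI50 = concentration required for 50% inhibition of growth. TGI marks complete inhibition of growth.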

Legend:
Assay in all cases: growth of human tumour cells (NCI), 48 h
[1] = test system: CCRF-CEM leukemia
[2] = test system: UACC-62 melanoma
[3] = test system: HT29 colon
[4] = test system: NCI-H460 lung
[5] = test system: HCT-15 colon
[6] = test system: MALME-3M melanoma
[7] = test system: RXF 393 renal
[8] = test system: M14 melanoma
[9] = test system: SW-620 colon
[10] = test system: NCI-H522 lung
[11] = test system: OVCAR-3 ovarian
[12] = test system: MCF7 breast
[13] = test system: SNB-19 CNS
[14] = test system: OVCAR-8 ovarian
[15] = test system: MOLT-4 leukemia
[16] = test system: K-562 leukemia
[17] = test system: KM12 colon
[18] = test system: SF-539 CNS
[19] = test system: SK-OV-3 ovarian
[20] = test system: SK-MEL-2 melanoma
[21] = test system: SNB-75 CNS
[22] = test system: IGROV1 ovarian
[23] = test system: T-47D breast
[24] = test system: A549 NSCLC
[25] = test system: CAKI-1 renal
[26] = test system: NCI-H23 lung
[27] = test system: HL-60(TB) leukemia
[28] = test system: HS 578T breast
[29] = test system: SK-MEL-5 melanoma

CCN(CC)CCNc1ccc(C)c2sc3ccccc3c(=O)c12 (tested in a mixture with another compound)
GI50 [1]: 2.84 µM and 3.05 µM
TGI [1]: 8.82 µM and 10.6 µM
GI50 [2]: 1.08 µM
TGI [2]: 2.49 µM and 3.79 µM
TGI [3]: 3.79 µM
TGI [4]: 3.81 µM and 3.58 µM
TGI [5]: 11.1 µM and 9.1 µM
GI50 [6]: 1.65 µM and 1.71 µM
TGI [6]: 3.46 µM and 3.45 µM
TGI [7]: 5.16 µM
TGI [8]: 3.05 µM and 3.14 µM
TGI [9]: 3.46 µM and 3.72 µM
GI50 [10]: 3.34 µM
TGI [10]: 13.3 µM
GI50 [11]: 2.43 µM
TGI [11]: 6.92 µM and 7.23 µM
GI50 [12]: 1.81 µM and 1.75 µM
TGI [12]: 3.85 µM and 3.73 µM
GI50 [13]: 3.95 µM
TGI [13]: 11.4 µM and 15.7 µM
GI50 [14]: 6.63 µM
TGI [14]: 76.9 µM
GI50 [15]: 2.55 µM and 2.57 µM
TGI [15]: 6.33 µM and 6.48 µM
TGI [16]: 3.92 µM and 4.27 µM
TGI [17]: 9.82 µM and 11.6 µM
GI50 [18]: 1.92 µM and 2.25 µM
TGI [18]: 4.06 µM and 5.45 µM
GI50 [19]: 2.11 µM and 2.91 µM
TGI [19]: 5.63 µM and 9.21 µM
TGI [20]: 8.28 µM
TGI [21]: 4.6 µM and 6.21 µM
GI50 [22]: 1.54 µM and 2.75 µM
TGI [22]: 3.1 µM and 9.38 µM
GI50 [23]: 1.75 µM and 2.29 µM
TGI [23]: 4.64 µM and 7.22 µM
GI50 [24]: 1.63 µM
TGI [24]: 3.24 µM and 8.53 µM
GI50 [25]: 1.38 µM and 0.694 µM
TGI [25]: 4.5 µM and 6.47 µM
GI50 [26]: 2.32 µM
TGI [26]: 6.01 µM and 11.4 µM
GI50 [27]: 2.41 µM
TGI [27]: 3.72 µM and 7.76 µM
GI50 [28]: 1.91 µM and 1.78 µM
TGI [28]: 4.75 µM and 5 µM
GI50 [29]: 1.54 µM and 1.69 µM
TGI [29]: 2.98 µM and 3.09 µM
